Measured values from the supplement of paper PMC10307832.

Key:
Assay in all cases: relative viability (nuclei count vs DMSO), 5 days (fraction); higher = more cells survive
[1] = compound: C=CCc1cccc(/C=N/NC(=O)CN2CCN(Cc3ccccc3)CC2)c1O [PAC-1] + COc1cc2c(Oc3ccc(NC(=O)C4(C(=O)Nc5ccc(F)cc5)CC4)cc3F)ccnc2cc1OCCCN1CCOCC1 [Foretinib] (partner 0.25 µM)
Procedure, shortened: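 Lung cancer cell lines were pin-tool dosed in 1536-well plates on the day after seeding, with either a lone drug or a fixed anchor-drug dose plus five library-drug doses (not always all listed) in √10 steps. Nuclei were counted on 4× images after 5 days. Relative viability is the ratio of treated-well to vehicle-well nuclei counts, with each value a median of duplicate plates.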

[2] = compound: C=CC(=O)Nc1cc(-n2c(=O)ccc3cnc4ccc(-c5ccc(NS(C)(=O)=O)cc5)cc4c32)ccc1C [BMX-IN-1]
Procedure, shortened: (§1)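 Nuclei counted with MetaXpress define viability as the ratio of treated to vehicle wells, given as a median across plates. The lung cancer cell lines were in 1536-well plates, pinned with five √10-spaced library-drug doses and imaged at 4× after 5 days and Hoechst staining. Plates passed with control CV below 25% and at least one doubling.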

[3] = compound: C=CCc1cccc(/C=N/NC(=O)CN2CCN(Cc3ccccc3)CC2)c1O [PAC-1]
Procedure, shortened: as §1

[4] = compound: C=CC(=O)N1CCC[C@@H](n2nc(-c3ccc(Oc4ccccc4)cc3)c3c(N)ncnc32)C1 [Ibrutinib]
Procedure, shortened: as §1

Row | Cell Line | relative viability ([1]; first compound 0.02 µM) | relative viability ([1]; first compound 0.06325 µM) | relative viability ([1]; first compound 0.2 µM) | relative viability ([1]; first compound 2 µM) | relative viability ([2]; 0.02 µM) | relative viability ([2]; 0.2 µM) | relative viability ([2]; 0.6325 µM) | relative viability ([2]; 2 µM) | relative viability ([3]; 0.02 µM) | relative viability ([3]; 0.06325 µM) | relative viability ([3]; 0.2 µM) | relative viability ([3]; 2 µM) | relative viability ([4]; 0.005 µM) | relative viability ([4]; 0.01581 µM) | relative viability ([4]; 0.05 µM) | relative viability ([4]; 0.1581 µM) | relative viability ([4]; 0.5 µM)
1 | 201T | 0.998 | 1.22 | 1.15 | 1.11 | 1.11 | 0.996 | 1.05 | 1.03 | 0.959 | 1.02 | 1.01 | 0.981 | 0.979 | 0.992 | 0.964 | 0.876 | 0.955
2 | A549 | 0.952 | 0.964 | 1.04 | 1.01 | 1.17 | 1.17 | 1.05 | 1.07 | 0.994 | 0.962 | 0.943 | 0.96 | 0.884 | 0.891 | 1 | 0.988 | 0.935
3 | A-427 | 1.12 | 0.946 | 1.09 | 1.08 | 1.08 | 1.12 | 1.17 | 1.03 | 1.01 | 1.04 | 0.976 | 0.97 | 0.9 | 0.969 | 0.953 | 0.951 | 0.98
4 | ABC-1 | 0.991 | 1.19 | 1 | 1.01 | 1.05 | 1.02 | 1.01 | 1.05 | 0.992 | 0.952 | 0.975 | 0.887 | 0.907 | 0.761 | 0.887 | 0.744 | 0.94
5 | BEN | 0.68 | 0.651 | 0.589 | 0.678 | 1.17 | 1.27 | 0.861 | 1.01 | 0.987 | 0.901 | 0.912 | 1.04 | – | 0.925 | 0.843 | 0.718 | 0.997
6 | CAL-12T | 1.15 | 1.1 | 0.978 | 1.08 | 1.08 | 0.995 | 1.03 | 0.989 | 1.02 | 1.11 | 0.984 | 0.947 | 0.824 | 0.907 | 0.902 | 0.932 | 0.678
7 | COR-L23 | 1.01 | 1.02 | 0.902 | 0.951 | 1.35 | 1.16 | 1.17 | 1.07 | 1.09 | 1 | 0.9 | 1 | 1.09 | 0.967 | 1.03 | 1.03 | 1.18
8 | COR-L 105 | 0.991 | 1.16 | 1.25 | 1.31 | 1.07 | 0.937 | 1.3 | 0.961 | 0.919 | 0.901 | 0.903 | 0.985 | 0.806 | 0.878 | 0.676 | 0.814 | 0.393
